Data published in publication PMC11023993, “Piperine, quercetin, and curcumin identified as promising natural products for topical treatment of cutaneous leishmaniasis” (Parasitology Research, 2024).

Test: MTT cytotoxicity assay in uninfected U-937 macrophages
Conditions: human
Method: U-937 (CRL-1593.2™) macrophages (ATCC, Manassas, VA, USA) were cultured in RPMI-1640 medium supplemented with 10% of FBS and incubated at 37 °C in 5% CO2, 95% humidity atmosphere. U-937 cells in the exponential growth phase were recovered, and washed by centrifugation at 1800 rpm for 10 min at room temperature; the pellet was then resuspended in supplemented RPMI 1640 medium and counted in a Neubauer chamber. The number was adjusted to 1 × 10^6 cells per mL and 100 µL was dispensed into each well of a 96-well plate. Then, another 100 µL of each serial dilution of QUE, PIP, CUR, doxorubicin, and amphotericin B was added to each well by triplicate and plates were incubated at 37 °C 5% CO2, 95% humidity atmosphere for 48 h.
The MTT solution is then added to the treated cells, where the yellow MTT is reduced to purple formazan by a variety of mitochondrial and cytosolic enzymes that are operational in viable cells. After 3 h of incubation with MTT, the formazan precipitates. Consequently, the growing medium was removed, the formazan was dissolved in DMSO, and the absorbance of the solution was measured at 570 nm using a microplate reader spectrophotometer (Varioskan Flash, Thermo Fisher Scientific).
Cells exposed to the standard cytotoxic drug doxorubicin were used as an internal control for toxicity (positive control) while cells incubated in the absence of any compound or drug were used as a control for viability (negative control). A solution of 0.5% DMSO was used as a blank solution. Non-specific absorbance was corrected by subtracting absorbance (OD) of the blank. Determinations were done by triplicate in at least two independent experiments.
The OD of viable cells that remained after treatment was compared to the OD of control cells that were not exposed to the drug. The LC50 (median lethal concentration) values and their statistical errors were calculated based on triplicates of the measurement in the independent assays. The LC50 values were determined by non-linear regression using Prism GraphPad 10.
The LC50 and the EC50 were calculated by Probit analysis using GraphPad Prism 10 (San Diego, CA, USA). Both cytotoxicity and leishmanicidal activity were defined by ranges of values of LC50 and EC50 in terms of high, moderate, or low as follows: high cytotoxicity for LC50 values < 100 µM, moderate cytotoxicity for LC50 values > 100 µM but < 200 µM, and low cytotoxicity for LC50 values > 200 µM. […] In addition, the cytotoxicity in U937 macrophages was correlated with the leishmanicidal activity by calculating the Selectivity Index (SI), using the equation: SI = LC50/EC50 (Indrayanto et al. [2021]).

Compound: O=c1c(O)c(-c2ccc(O)c(O)c2)oc2cc(O)cc(O)c12 [Quercetin, quercetin]
- CC50 at 48 h: > 662 µM
